The source of these data is US11013706B2, “Non-pharmaceutical bactericidal composition against Helicobacter pylori” (ECO-GEO BIO-TECHNOLOGY COMPANY LIMITED., priority 2019, dated 2021).

For assay [1], the system named is Helicobacter pylori strain 26695 (ATCC700392). The assay can be described thus: Embodiment 1: antibacterial experiment against Helicobacter pylori, citrate and phosphate buffer combinations with or without ascorbic acid (viable count). The class given is cell-based.
For assay [2] the test system is unchanged. The assay is described as follows: Embodiment 4: antibacterial experiment against Helicobacter pylori, malate, lactate, citrate and phosphate buffer combinations with ascorbic acid (viable count). It is filed as cell-based. As to the method:
The bacteria strain used in the experiment was Helicobacter pylori strain 26695 (ATCC700392), and the bacteria were subcultured on Brucella solid medium (Brucella broth 28 g/L, Agar 15 g/L and 10% (v/v) Horse serum, pH 7.0). After the bacteria were seeded by streaking method, they were cultured in a humidified anaerobic chamber at 37° C. for 72 hours using a microaerobic bag (Genbox microaer, BioMerieux, 96125). […] Brucella broth containing 10 mg/mL of NaHCO3 was added to the Helicobacter pylori subcultured for 72 hours, bacterial concentration was adjusted to 10^7-10^8 CFU/mL as a bacterial solution, the bacterial solution was mixed with each culture solution in a 1:1 ratio, and the mixture was incubated at 37° C. in a humidified anaerobic chamber using a micro-aerobic bag (Genbox microaer, BioMerieux, 96125). […] The malate buffer combination and the lactate buffer combination were prepared by mixing malic acid and sodium malate, and lactic acid and sodium lactate, respectively, in the same way. The phosphate buffer solutions were prepared by mixing KH2PO4 and Na2HPO4 in different ratios according to their pH values, and the unmodulable portion was prepared by HCl and NaOH to reach a constant pH value. The pH of the pure medium was adjusted with HCl and NaOH. […] Finally, the viable count of each culture medium was calculated.

On to `O=C1O[C@H]([C@@H](O)CO)C(O)=C1O` [ascorbic acid, L-Ascorbic acid], for which the “effect of the ascorbic acid on the sterilization of the citrate buffer combination” value in assay [1] (comparing C3 with C3V3000, and C4 with C4V3000) was “synergistic effect”. Besides, the “effect of the ascorbic acid added to the phosphate buffer combination or water” value in assay [1] (presence of bicarbonate, Embodiment 1) is reported as “neither the bactericidal effect nor the synergistic effect”; in assay [2] (presence of bicarbonate, Embodiments 3 and 4), “neither bactericidal effect nor synergistic effect”. Besides, in assay [2] (comparing Embodiment 3 and Embodiment 4), the “effect of the ascorbic acid on the sterilization effect of the citrate or the malate buffer combination” value was “synergistic effect”.
